In US10045962B2 (priority 2014, dated 2018):
Several values for one entry are separate records, joined by “and”; a condition that tells them apart may be missing. Equal values may be shown once. Where a name gives a salt, the structure may show the parent alone. Read-outs that look alike come from different tables or passages of the source.

How the values were obtained:
[1] = system: H1650 (lung adenocarcinoma); details: 10 μM, 72 hours
Description: (§1) These cells were seeded at an amount of 2×10^6 cells, and then added with the culture medium for cultivating the cells to a volume of 10 mL, followed by cultivation for 2 to 3 days. After counting the cell number, these cells were respectively plated in a 96-well plate, in which each well has a fixed cell number of 3000 and a volume of 100 μL.
(§2) After removing the culture medium in the 96-well plate, each well was added with 100 μL of 10 μM commercial drug and then placed for 72 hours. Thereafter, each well was further added with 100 μL of a diluted WST-1 solution (the dilution ratio for the culture medium: WST-1 stock solution (wt/wt) is 9:1).

[2] = system: TSGH (urinary bladder carcinoma); details: 10 μM, 72 hours
Description: as §1, §2

various cancer cells = details: Table 18, FIG. 1
Description: as §1, §2

Breast cancer = details: summary over cell lines, 10 μM, 72 hours
Description: as §1, §2

[3] = system: liver cancer cells (HepG2); details: for Increased tumor volume, Mean / Volume, Mean / Increased tumor volume / L (longest diameter of the tumor) / Volume / W (shortest diameter of the tumor) / Weight: intraperitoneal daily; for Increased tumor volume, Mean / Volume, Mean: mean of 3 mice; for Increased tumor volume / L (longest diameter of the tumor) / Volume / W (shortest diameter of the tumor) / Weight: mice A, B, C
Description: This experiment was performed with female BALB/cAnN.Cg-Foxn1nu/CrlNarl mice with a weight of around 21±1 gas samples. After subcutaneous injection of liver cancer cells (HepG2), the mice were randomly divided into three groups based on the test drug, i.e., normal control group, low dosage group (100 mg/kg/day) and high dosage group (200 mg/kg/day). After the tumor was grown to be over 100 mm^3, the mice were treated with the drug via intraperitoneal injection daily. The tumor size was measured two times per week. The formula for determining the tumor size was as follows: (L×W^2)/2, in which L represents the longest diameter of the tumor and W represents the shortest diameter of the tumor.

[4] = system: C-33A (cervical carcinoma); details: 10 μM, 72 hours
Description: as §1, §2

[5] = system: A375 (amelanotic melanoma); details: 10 μM, 72 hours
Description: as §1, §2

[6] = system: MDA-MB-231 (mammary gland, adenocarcinoma); details: 10 μM, 72 hours
Description: as §1, §2
(§3) Each cancer cell inhibitory experiment was repeated for 4 times, followed by calculation of the mean values thereof, which were shown in the following tables.

[7] = system: LoVo (colorectal adenocarcinoma); details: 10 μM, 72 hours
Description: as §1, §2, §3

TOV-21G = details: 10 μM, 72 hours
Description: as §1, §2

[8] = system: A549 (lung adenocarcinoma); details: 10 μM, 72 hours
Description: as §1, §2

LNCap = details: 10 μM, 72 hours, single experiments not given
HEK 293 (kidney) = details: 10 μM, 72 hours
Description: as §1, §2
Each cell inhibitory experiment was repeated for 4 times, followed by calculation of the mean values thereof, which were shown in the following tables.

[9] = High dosage (200 mg/kg/day), Fifth measurement
[10] = High dosage (200 mg/kg/day), First measurement
[11] = High dosage (200 mg/kg/day), First measurement, hydrochloride
[12] = High dosage (200 mg/kg/day), Fourth measurement
[13] = High dosage (200 mg/kg/day), Second measurement
[14] = High dosage (200 mg/kg/day), Second measurement, hydrochloride
[15] = High dosage (200 mg/kg/day), Third measurement
[16] = Low dosage (100 mg/kg/day), Fifth measurement
[17] = Low dosage (100 mg/kg/day), Fifth measurement, hydrochloride
[18] = Low dosage (100 mg/kg/day), First measurement
[19] = Low dosage (100 mg/kg/day), First measurement, hydrochloride
[20] = Low dosage (100 mg/kg/day), Fourth measurement
[21] = Low dosage (100 mg/kg/day), Fourth measurement, hydrochloride
[22] = Low dosage (100 mg/kg/day), Second measurement
[23] = Low dosage (100 mg/kg/day), Second measurement, hydrochloride
[24] = Low dosage (100 mg/kg/day), Third measurement
[25] = Low dosage (100 mg/kg/day), Third measurement, hydrochloride

CNCC[C@H](Oc1cccc2ccccc12)c1cccs1 [duloxetine HCl, Duloxetine hydrochloride]
Mean (survival rate) ([1]; mean of 4 experiments): 36.3%
survival rate 1-10 min ([1]; single experiment): 35.2%
survival rate 2-20 min ([1]; single experiment): 36.9%
survival rate 3-20 min ([1]; single experiment): 33.6%
survival rate 4-20 min ([1]; single experiment): 39.4%
Mean survival rate (%) ([2]; mean of 4 experiments): 49.2%
survival rate 0510-10 min ([2]; single experiment): 36.1%
survival rate 0512-10 min ([2]; single experiment): 59.0%
survival rate 0515-10 min ([2]; single experiment): 61.2%
survival rate 0517-10 min ([2]; single experiment): 40.5%
inhibitory effect against various cancers (various cancer cells): significant inhibitory effect
Survival rate (%) (Breast cancer): 48.57%
Increased tumor volume, Mean [3, 9]: 0 mm^3
Volume, Mean [3, 9]: 0 mm^3
Increased tumor volume [3, 9]: 0 mm^3
L (longest diameter of the tumor) [3, 9]: 0 mm
Volume [3, 9]: 0 mm^3
W (shortest diameter of the tumor) [3, 9]: 0 mm
Weight [3, 9]: 20 g
Weight ([3]; High dosage (200 mg/kg/day), Fifth measurement, hydrochloride): 21 g
Increased tumor volume, Mean [3, 10]: 78.5 mm^3
Volume, Mean [3, 10]: 78.5 mm^3
Weight [3, 10]: 20 g
L (longest diameter of the tumor) [3, 11]: 6 mm and 8 mm and 7 mm
W (shortest diameter of the tumor) [3, 11]: 4 mm and 5 mm
Weight [3, 11]: 19 g and 18.5 g
Increased tumor volume, Mean [3, 12]: −13.3333 mm^3
Volume, Mean [3, 12]: 0 mm^3
L (longest diameter of the tumor) [3, 12]: 0 mm
Volume [3, 12]: 0 mm^3
W (shortest diameter of the tumor) [3, 12]: 0 mm
Weight [3, 12]: 20 g
Weight ([3]; High dosage (200 mg/kg/day), Fourth measurement, hydrochloride): 21 g
Increased tumor volume, Mean [3, 13]: −25.8333 mm^3
Volume, Mean [3, 13]: 52.67 mm^3
Weight [3, 13]: 20 g
L (longest diameter of the tumor) [3, 14]: 6 mm and 5 mm and 7 mm
W (shortest diameter of the tumor) [3, 14]: 4 mm and 3 mm and 5 mm
Weight [3, 14]: 23 g
Increased tumor volume, Mean [3, 15]: −39.3333 mm^3
Volume, Mean [3, 15]: 13.33 mm^3
Weight ([3]; High dosage (200 mg/kg/day), Third measurement, hydrochloride): 19 g and 18.5 g
Increased tumor volume, Mean [3, 16]: −8.333 mm^3
Volume, Mean [3, 16]: 63.33 mm^3
Weight [3, 16]: 20 g
L (longest diameter of the tumor) [3, 17]: 6 mm and 4 mm
W (shortest diameter of the tumor) [3, 17]: 6 mm and 5 mm and 4 mm
Weight [3, 17]: 22 g
Increased tumor volume, Mean [3, 18]: 113.1667 mm^3
Volume, Mean [3, 18]: 113.1667 mm^3
Increased tumor volume [3, 19]: 87.5 mm^3 and 144 mm^3 and 108 mm^3
L (longest diameter of the tumor) [3, 19]: 7 mm and 8 mm and 6 mm
Volume [3, 19]: 87.5 mm^3 and 144 mm^3 and 108 mm^3
W (shortest diameter of the tumor) [3, 19]: 5 mm and 6 mm
Weight [3, 19]: 19 g and 18 g
Increased tumor volume, Mean [3, 20]: −18.1667 mm^3
Volume, Mean [3, 20]: 71.67 mm^3
Weight [3, 20]: 20 g
L (longest diameter of the tumor) [3, 21]: 6 mm and 4 mm
W (shortest diameter of the tumor) [3, 21]: 6 mm and 4 mm and 5 mm
Weight [3, 21]: 22 g
Increased tumor volume, Mean [3, 22]: −4.167 mm^3
Volume, Mean [3, 22]: 109 mm^3
Weight [3, 22]: 20 g
L (longest diameter of the tumor) [3, 23]: 6 mm and 7 mm
Volume [3, 23]: 75 mm^3 and 126 mm^3
W (shortest diameter of the tumor) [3, 23]: 5 mm and 6 mm
Weight [3, 23]: 19 g and 21 g
Increased tumor volume, Mean [3, 24]: −19.1667 mm^3
Volume, Mean [3, 24]: 89.83 mm^3
L (longest diameter of the tumor) [3, 24]: 7 mm
W (shortest diameter of the tumor) [3, 25]: 6 mm and 4 mm and 5 mm
Weight [3, 25]: 20.5 g and 23.5 g and 19 g
inhibitory effect against the tumors ([3]; both low dosage and high dosage, FIG. 2): great inhibitory effect
weight loss during the experiments ([3]; each group of mice, high or low dosage): no obvious weight loss
health condition / death during the treatment ([3]; either high or low dosage): not die during the treatment
effect on tumor volume, high versus low dosage ([3]; high dosage, FIG. 3): better effect
increase of tumor volume ([3]; low dosage and high dosage, FIG. 3): effectively inhibit the increase of tumor volume
Mean survival rate (%) ([4]; mean of 4 experiments): 40.7%
survival rate 0524-10 min ([4]; single experiment): 34.3%
survival rate 0526-10 min ([4]; single experiment): 52.4%
survival rate 0529-10 min ([4]; single experiment): 33.7%
survival rate 0531-10 min ([4]; single experiment): 42.4%
Mean survival rate (%) ([5]; mean of 4 experiments): 31.5%
survival rate 0602-30 min ([5]; single experiment): 25.7%
survival rate 0605-10 min ([5]; single experiment): 16.2%
survival rate 0607-10 min ([5]; single experiment): 17.1%
survival rate 0609-10 min ([5]; single experiment): 67.0%
Mean (survival rate) ([6]; mean of 3 printed experiments): 65.9%
survival rate 0612-10 min ([6]; single experiment): 53.4%
survival rate 0614-10 min ([6]; single experiment): 70.2%
survival rate 0616-10 min ([6]; single experiment): 74.3%
Mean survival rate (%) ([7]; mean of 4 experiments): 47.3%
survival rate 0616-10 min ([7]; single experiment): 44.8%
survival rate 0619-10 min ([7]; single experiment): 63.4%
survival rate 0621-10 min ([7]; single experiment): 49.9%
survival rate 0623-10 min ([7]; single experiment): 31.0%
Mean (survival rate) (TOV-21G; mean of 4 experiments): 34.9%
survival rate 7-3-30 min (TOV-21G; single experiment): 30.9%
survival rate 7-4-30 min (TOV-21G; single experiment): 41.9%
survival rate 7-7-30 min (TOV-21G; single experiment): 34.7%
survival rate -4-30 min (TOV-21G; single experiment): 31.9%
Mean survival rate (%) ([8]; mean of 4 experiments): 37.5%
survival rate 0524-10 min ([8]; single experiment): 32.8%
survival rate 0526-10 min ([8]; single experiment): 53.7%
survival rate 0529-10 min ([8]; single experiment): 33.2%
survival rate 0531-10 min ([8]; single experiment): 30.1%
Mean (survival rate) (LNCap): 72.8%
Mean survival rate (%) (HEK 293 (kidney); HEK 293 normal kidney cells, mean, single experiments not given): 62.4%
Survival rate (%) (HEK 293 (kidney); Kidney (HEK293 normal cells), summary table): 62.44%
